Test system: RSV strain A2
Assay: RSV antiviral cytoprotection assay in Hep2 cells (96-well and 384-well format, Cell TiterGlo read-out)
Type: cell-based, Respiratory Syncytial Virus (RSV)
Conditions: human respiratory syncytial virus; for inhibition at 0.5 µM: HEp-2, 0.5 uM, RSV-induced cytopathic effect in Hep2 cells, calculated from fitted dose response curve, normalized to 0% and 100%; for EC50: HEp-2, RSV-induced cytopathic effects, Hep2 cells, class symbols

Row | Structure (SMILES) | EC50 | inhibition at 0.5 µM
1 | Cc1[nH]c2cc([C@@H]3CCCCN3C(=O)c3cc(F)cc(Cl)c3NS(C)(=O)=O)nn2c(=O)c1C [Compound 127] | 0.1 to 100 nM | 99%
2 | CS(=O)(=O)Nc1ccc(Cl)cc1C(=O)N1CCCC[C@H]1c1cc2nc(N3CC(O)C3)cc(N3CC(N)C3)n2n1 [Compound 130] | 0.1 to 100 nM | 100%
3 | CS(=O)(=O)Nc1ccc(Cl)cc1C(=O)N1CCCC[C@H]1c1cc2nc(N3CC(N)C3)cc(N3CC(N)C3)n2n1 [Compound 131] | 0.1 to 100 nM | 100%
4 | CS(=O)(=O)Nc1ccc(Cl)cc1C(=O)N1CCCC[C@H]1c1cc2nc(N3CC[C@@H](O)C3)cc(N3CC(N)C3)n2n1 [Compound 132] | 0.1 to 100 nM | 97%
5 | CS(=O)(=O)Nc1ccc(Cl)cc1C(=O)N1CCCC[C@H]1c1cc2nc(N3CCC3)cc(N3CC(N)C3)n2n1 [Compound 133] | 0.1 to 100 nM | 96%
6 | Cc1cn2nc([C@@H]3CC[C@H](C)CN3C(=O)c3cc(Cl)ccc3NS(C)(=O)=O)cc2nc1N1CC(O)C1 [Compound 135] | 0.1 to 100 nM | 100%
7 | Cc1cn2nc([C@@H]3CC[C@H](C)CN3C(=O)c3cc(Cl)ccc3NS(C)(=O)=O)cc2nc1N1CC[C@@H](O)C1 [Compound 136] | 0.1 to 100 nM | 100%
8 | Cc1cn2nc([C@@H]3CC[C@H](C)CN3C(=O)c3cc(Cl)ccc3NS(C)(=O)=O)cc2nc1N1CC(N)C1 [Compound 137] | 0.1 to 100 nM | 100%
9 | Cc1cn2nc([C@@H]3CC[C@H](C)CN3C(=O)c3cc(Cl)ccc3NS(C)(=O)=O)cc2nc1N1CCC1 [Compound 138] | 0.1 to 100 nM | 100%
10 | Cc1cn2nc([C@@H]3CCCCN3C(=O)c3cc(Cl)ccc3NS(C)(=O)=O)cc2nc1NC(=N)N [Compound 139] | 0.1 to 100 nM | 99%
11 | C[C@H]1CC[C@@H](c2cc3nc(N4CC(N)C4)cc(N4CCOCC4)n3n2)N(C(=O)c2cc(Cl)ccc2NS(C)(=O)=O)C1 [Compound 142] | 0.1 to 100 nM | 100%
12 | C[C@H]1CC[C@@H](c2cc3nc(N4CCC4)cc(N4CCOCC4)n3n2)N(C(=O)c2cc(Cl)ccc2NS(C)(=O)=O)C1 [Compound 143] | 0.1 to 100 nM | 100%
13 | CS(=O)(=O)Nc1ccc(Cl)cc1C(=O)N1CCCC[C@H]1c1cc2nc(N3CCC3)cc(N3CCCN3)n2n1 [Compound 145] | 0.1 to 100 nM | 99%
14 | CS(=O)(=O)Nc1ccc(Cl)cc1C(=O)N1CCCC[C@H]1c1cc2nc(N3CCC3)cc(N3C[C@H]4C[C@@H]3CN4)n2n1 [Compound 147] | 0.1 to 100 nM | 98%
15 | Cc1cccc(C(=O)N2CCCC[C@H]2c2cc3nc(N4CC[C@H](C#N)C4)c(C)cn3n2)c1 [Compound 152] | 0.1 to 100 nM | 100%
16 | Cc1cn2nc([C@@H]3CCCCN3C(=O)c3cccc(N)c3)cc2nc1N1CC[C@H](C#N)C1 [Compound 153] | 0.1 to 100 nM | 100%
17 | C[C@@H]1CN(c2cc(N3CCC3)nc3cc([C@@H]4CCCCN4C(=O)c4cc(Cl)ccc4NS(C)(=O)=O)nn23)CCN1 [Compound 154] | 0.1 to 100 nM | 100%
18 | C[C@H]1CN(c2cc(N3CCC3)nc3cc([C@@H]4CCCCN4C(=O)c4cc(Cl)ccc4NS(C)(=O)=O)nn23)CCN1 [Compound 155] | 0.1 to 100 nM | 100%
19 | CS(=O)(=O)Nc1ccc(Cl)cc1C(=O)N1CCCC[C@H]1c1cc2nc(N3CCC3)cc(N3CCCNCC3)n2n1 [Compound 156] | 0.1 to 100 nM | 100%

Row | Structure (SMILES) | EC50 | inhibition at 0.5 µM
20 | Cc1cccc(C(=O)N2CCCC[C@H]2c2cc3nc(N4CC[C@H](N)C4)c(C)cn3n2)c1 [Compound 157] | 0.1 to 100 nM | 100%
21 | Cc1ccccc1C(=O)N1CCCC[C@H]1c1cc2nc(N3CC[C@H](N)C3)c(C)cn2n1 [Compound 158] | 0.1 to 100 nM | 100%
22 | CS(=O)(=O)Nc1ccc(Cl)cc1C(=O)N1CCCC[C@H]1c1cc2nc(N3CCC3)cc(N3CCNC(C(F)(F)F)C3)n2n1 (stereo partly drawn) [Compound 159] | 0.1 to 100 nM | 100%
23 | Cc1cc(C)cc(C(=O)N2CCCC[C@H]2c2cc3nc(N4CC[C@H](N)C4)c(C)cn3n2)c1 [Compound 160] | 0.1 to 100 nM | 100%
24 | Cc1ccc(C)c(C(=O)N2CCCC[C@H]2c2cc3nc(N4CC[C@H](N)C4)c(C)cn3n2)c1 [Compound 161] | 0.1 to 100 nM | 100%
25 | CS(=O)(=O)Nc1ccc(Cl)cc1C(=O)N1CCCC[C@H]1c1cc2nc(N3CCC3)cc(N3CCN[C@@H](CF)C3)n2n1 [Compound 162] | 0.1 to 100 nM | 100%
26 | C[C@@H]1CN(c2cc(N3CCC3)nc3cc([C@@H]4CCCCN4C(=O)c4cc(Cl)ccc4NS(C)(=O)=O)nn23)C[C@H](C)N1 [Compound 163] | 0.1 to 100 nM | 100%
27 | CS(=O)(=O)Nc1ccc(Cl)cc1C(=O)N1CCCC[C@H]1c1cc2nc(N3CCC3)cc(N3CC(N)C(C(=O)N4CCC4)C3)n2n1 (stereo partly drawn) [Compound 164] | 0.1 to 100 nM | 100%
28 | CN1CCN(c2cc(N3CCC3)nc3cc([C@@H]4CCCCN4C(=O)c4cc(Cl)ccc4NS(C)(=O)=O)nn23)CC1 [Compound 165] | 0.1 to 100 nM | 100%
29 | CS(=O)(=O)Nc1ccc(Cl)cc1C(=O)N1CCCC[C@H]1c1cc2nc(N3CCC3)cc(N3CCN(CCF)CC3)n2n1 [Compound 166] | 0.1 to 100 nM | 100%
30 | CC(=O)Nc1ccc(C)cc1C(=O)N1CCCC[C@H]1c1cc2nc(N3CC[C@H](N)C3)c(C)cn2n1 [Compound 169] | 0.1 to 100 nM | 100%
31 | CN1CCCN(c2cc(N3CCC3)nc3cc([C@@H]4CCCCN4C(=O)c4cc(Cl)ccc4NS(C)(=O)=O)nn23)CC1 [Compound 173] | 0.1 to 100 nM | 100%
32 | CN(C)CCN(C)c1cc(N2CCC2)nc2cc([C@@H]3CCCCN3C(=O)c3cc(Cl)ccc3NS(C)(=O)=O)nn12 [Compound 175] | 0.1 to 100 nM | 100%
33 | Cc1cn2nc([C@@H]3Cc4ccccc4CN3C(=O)c3cc(Cl)ccc3NS(C)(=O)=O)cc2nc1N1CC[C@H](N)C1 [Compound 176] | 0.1 to 100 nM | 100%
34 | CS(=O)(=O)Nc1ccc(Cl)cc1C(=O)N1CCCCCC1c1cc2nc(N3CCC3)cc(N3CCOCC3)n2n1 (stereo not drawn) [Compound 177] | 0.1 to 100 nM | 99%
35 | CS(=O)(=O)Nc1ccc(Cl)cc1C(=O)N1CCCCCC1c1cc2nc(N3CC(N)C3)cc(N3CCOCC3)n2n1 (stereo not drawn) [Compound 178] | 0.1 to 100 nM | 100%
36 | Cc1cn2nc([C@@H]3CCCCN3C(=O)c3cc(Cl)ccc3NS(C)(=O)=O)cc2nc1N1CC(OC(=O)[C@@H](N)C(C)C)C1 [Compound 187] | 0.1 to 100 nM | 100%
37 | Cc1ccc(NS(C)(=O)=O)c(C(=O)N2CCCC[C@H]2c2cc3nc(N4CC[C@@H](C#N)C4)c(C)cn3n2)c1 [Compound 188] | 0.1 to 100 nM | 100%

Further lines, with some results ahead:

Row | EC50 | Structure (SMILES) | inhibition at 0.5 µM
38 | 0.1 to 100 nM | Cc1cn2nc([C@@H]3CCCCN3C(=O)c3cc(Cl)ccc3NS(C)(=O)=O)cc2nc1N1CC(C)C1 [Compound 129] | 100%
39 | 0.1 to 100 nM | Cc1cn2nc([C@@H]3CCCCN3C(=O)c3cc(Cl)ccc3NS(C)(=O)=O)cc2nc1-c1ccccc1 [Compound 134] | 98%
40 | 0.1 to 100 nM | Cc1cn2nc([C@@H]3CCCCN3C(=O)c3cc(Cl)ccc3NS(C)(=O)=O)cc2nc1N1CCCN1 [Compound 140] | 100%
41 | 0.1 to 100 nM | Cc1cn2nc([C@@H]3CCCCN3C(=O)c3cc(Cl)ccc3NS(C)(=O)=O)cc2nc1N1CCCCN1 [Compound 141] | 95%
42 | 0.1 to 100 nM | Cc1cn2nc([C@@H]3CCCCN3C(=O)c3cc(Cl)ccc3NS(C)(=O)=O)cc2nc1N1CC(OC(=O)CCC(=O)O)C1 [Compound 144] | 99%
43 | 0.1 to 100 nM | Cc1cn2nc([C@@H]3CCCCN3C(=O)c3cc(Cl)ccc3NS(C)(=O)=O)cc2nc1N1CCN=C1N [Compound 146] | 99%
44 | 0.1 to 100 nM | Cc1cn2nc([C@@H]3CCCCN3C(=O)c3cc(Cl)ccc3NS(C)(=O)=O)cc2nc1N1C[C@@H]2[C@@H](N)[C@@H]2C1 [Compound 148] | 100%
45 | 0.1 to 100 nM | Cc1cn2nc([C@@H]3CCCCN3C(=O)c3cc(Cl)ccc3NS(C)(=O)=O)cc2nc1N[C@H](C)CO [Compound 149] | 98%
46 | 0.1 to 100 nM | Cc1cn2nc([C@@H]3CCCCN3C(=O)c3cc(Cl)ccc3NS(C)(=O)=O)cc2nc1N(C)CCO [Compound 150] | 97%
47 | 0.1 to 100 nM | Cc1cn2nc([C@@H]3CCCCN3C(=O)c3cc(Cl)ccc3NS(C)(=O)=O)cc2nc1N1CC[C@@H](CN)C1 [Compound 151] | 99%
48 | 0.1 to 100 nM | COC1CN(c2nc3cc([C@@H]4CCCCN4C(=O)c4cc(Cl)ccc4NS(C)(=O)=O)nn3cc2C)CC1N (stereo partly drawn) [Compound 167] | 100%
49 | 0.1 to 100 nM | Cc1cn2nc([C@@H]3CCCCN3C(=O)c3cc(Br)ccc3NS(C)(=O)=O)cc2nc1N1CC(O)C1 [Compound 168] | 100%
50 | 0.1 to 100 nM | Cc1cn2nc([C@@H]3CCCCN3C(=O)c3cc(Cl)ccc3NS(C)(=O)=O)cc2nc1N1CC(=O)C1 [Compound 170] | 100%
51 | 0.1 to 100 nM | Cc1cn2nc([C@@H]3CCCCN3C(=O)c3cc(Cl)ccc3NS(C)(=O)=O)cc2nc1N1CC(OC(=O)[C@@H]2CCCN2)C1 [Compound 171] | 100%
52 | 0.1 to 100 nM | Cc1cn2nc([C@@H]3CCCCN3C(=O)c3cc(Cl)ccc3NS(C)(=O)=O)cc2nc1N1CC(OC(=O)CN)C1 [Compound 172] | 100%
53 | 0.1 to 100 nM | Cc1cn2nc(C3CCCCCN3C(=O)c3cc(Cl)ccc3NS(C)(=O)=O)cc2nc1N1CC(O)C1 (stereo not drawn) [Compound 174] | 100%
54 | 0.1 to 100 nM | Cc1cn2nc([C@@H]3CCCCN3C(=O)c3cc(Cl)ccc3NS(C)(=O)=O)cc2nc1N1CC(N)C(C#N)C1 (stereo partly drawn) [Compound 186] | 100%

From patent US9238039B2, “Pyrazolo[1,5-A]pyrimidines for antiviral treatment” (Gilead Sciences, Inc., priority 2010, dated 2016)
